From US5952330A, “Use of NK-1 receptor antagonists for treating mania” (Merck Sharp & Dohme Ltd., priority 1997, dated 1999) come the findings set out here.

The assay concerns cisplatin-induced emesis in ferrets. Nature of the assay: Ferret emesis, cisplatin-induced retches and vomits (Assay 3). The assay is classed as in vivo. Particulars: Mustela putorius; p.o., cisplatin 10 mg/kg i.v. 60 minutes after oral dosing; 4 h observation; read-out: ferret emesis: ID90. The procedure:
ASSAY 3: Ferret Emesis Individually housed male ferrets (1.0-2.5 kg) are dosed orally by gavage with test compound. Ten minutes later they are fed with approximately 10 g of tinned cat food. At 60 minutes following oral dosing, cisplatin (10 mg/kg) is given i.v. via a jugular vein catheter inserted under a brief period of halothane anaesthesia. The catheter is then removed, the jugular vein ligated and the skin incision closed. The ferrets recover rapidly from the anaesthetic and are mobile within 10-20 minutes. The animals are observed continuously during recovery from the anaesthetic and for 4 hours following the cisplatin injection. The numbers of retches and vomits occurring during the 4 hours after cisplatin administration are recorded by trained observers.

As to `C[C@@H](O[C@H]1OCCN(Cc2n[nH]c(=O)[nH]2)[C@H]1c1ccc(F)cc1)c1cc(C(F)(F)F)cc(C(F)(F)F)c1` [2-(R)-(1-(R)-(3,5-bis(trifluoromethyl)phenyl)ethoxy)-3-(S)-(4-fluorophenyl)-4-(3-(5-oxo-1H, 4H-1,2,4-triazolo)methyl)-morpholine], the ED90 was less than 3 mg/kg.
